Results published in the Kinase Knowledgebase extract (Sharma et al. 2016).

Key:
PIK3CA (human) = PIK3CA (human) (UniProt P42336); assay: Assessment of PIK3CA Kinase Activity
PIK3CG (human) = PIK3CG (human) (UniProt P48736); assay: Assessment of PIK3CG Kinase Activity
PIK3CD (Human) = PIK3CD (Human) (UniProt O00329); assay: Assessment of PIK3CD Kinase Activity
PIK3CB (Human) = PIK3CB (Human) (UniProt P42338); assay: Assessment of PIK3CB Kinase Activity
Sequence of PIK3CB (Human) (P42338 whole entry, looked up): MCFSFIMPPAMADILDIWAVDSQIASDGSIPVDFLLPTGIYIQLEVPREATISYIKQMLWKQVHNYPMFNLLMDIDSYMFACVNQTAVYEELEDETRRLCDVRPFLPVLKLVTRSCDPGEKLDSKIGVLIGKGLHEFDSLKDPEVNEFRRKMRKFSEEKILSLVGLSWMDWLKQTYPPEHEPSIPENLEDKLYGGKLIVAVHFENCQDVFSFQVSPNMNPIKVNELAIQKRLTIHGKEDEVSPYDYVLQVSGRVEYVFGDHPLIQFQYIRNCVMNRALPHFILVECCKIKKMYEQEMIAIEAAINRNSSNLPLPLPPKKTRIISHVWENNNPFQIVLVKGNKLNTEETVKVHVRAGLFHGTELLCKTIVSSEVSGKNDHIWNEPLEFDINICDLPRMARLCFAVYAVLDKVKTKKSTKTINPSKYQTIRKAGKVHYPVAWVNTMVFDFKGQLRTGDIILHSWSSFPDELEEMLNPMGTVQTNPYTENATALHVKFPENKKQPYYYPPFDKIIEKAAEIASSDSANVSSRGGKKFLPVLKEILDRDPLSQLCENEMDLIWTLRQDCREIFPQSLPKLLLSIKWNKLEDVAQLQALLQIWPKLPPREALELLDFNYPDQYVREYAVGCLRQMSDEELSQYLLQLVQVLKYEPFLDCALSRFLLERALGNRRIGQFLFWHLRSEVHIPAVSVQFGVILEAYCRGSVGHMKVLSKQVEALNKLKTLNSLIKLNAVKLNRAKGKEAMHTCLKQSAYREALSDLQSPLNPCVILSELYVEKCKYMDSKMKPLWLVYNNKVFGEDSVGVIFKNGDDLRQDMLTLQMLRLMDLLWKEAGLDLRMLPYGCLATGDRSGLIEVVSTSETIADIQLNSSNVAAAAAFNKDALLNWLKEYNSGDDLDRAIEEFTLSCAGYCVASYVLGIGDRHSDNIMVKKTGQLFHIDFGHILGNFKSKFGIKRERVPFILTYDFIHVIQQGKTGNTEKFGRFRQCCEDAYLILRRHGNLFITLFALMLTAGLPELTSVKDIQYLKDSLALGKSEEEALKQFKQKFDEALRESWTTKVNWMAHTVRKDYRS

Sequence of PIK3CD (Human) (O00329 whole entry, looked up): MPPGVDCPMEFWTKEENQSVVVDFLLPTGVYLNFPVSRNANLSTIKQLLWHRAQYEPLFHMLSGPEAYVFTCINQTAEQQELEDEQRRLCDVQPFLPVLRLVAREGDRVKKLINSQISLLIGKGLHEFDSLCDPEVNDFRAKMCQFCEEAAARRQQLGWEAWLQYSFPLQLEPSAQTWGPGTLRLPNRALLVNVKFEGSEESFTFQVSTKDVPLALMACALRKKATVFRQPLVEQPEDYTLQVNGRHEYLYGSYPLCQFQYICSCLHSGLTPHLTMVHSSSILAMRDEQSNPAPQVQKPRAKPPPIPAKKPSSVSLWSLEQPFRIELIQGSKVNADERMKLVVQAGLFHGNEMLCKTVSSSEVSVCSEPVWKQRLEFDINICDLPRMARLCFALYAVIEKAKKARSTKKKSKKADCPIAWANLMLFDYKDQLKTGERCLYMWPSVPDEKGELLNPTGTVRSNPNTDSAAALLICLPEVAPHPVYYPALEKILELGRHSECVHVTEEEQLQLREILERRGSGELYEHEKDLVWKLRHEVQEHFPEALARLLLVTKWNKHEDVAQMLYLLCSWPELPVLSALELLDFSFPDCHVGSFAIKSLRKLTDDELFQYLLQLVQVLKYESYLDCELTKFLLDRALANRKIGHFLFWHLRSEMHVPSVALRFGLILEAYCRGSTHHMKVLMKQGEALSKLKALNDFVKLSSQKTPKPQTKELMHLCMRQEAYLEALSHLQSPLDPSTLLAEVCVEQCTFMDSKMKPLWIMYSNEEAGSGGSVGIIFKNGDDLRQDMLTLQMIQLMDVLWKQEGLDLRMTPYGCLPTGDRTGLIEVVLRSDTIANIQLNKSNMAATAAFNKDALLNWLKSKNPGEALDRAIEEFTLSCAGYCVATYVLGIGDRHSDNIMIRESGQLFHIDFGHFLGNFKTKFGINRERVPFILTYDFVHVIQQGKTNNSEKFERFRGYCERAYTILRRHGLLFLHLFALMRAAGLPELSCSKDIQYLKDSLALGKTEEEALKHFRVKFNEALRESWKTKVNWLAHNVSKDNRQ
Sequence of PIK3CA (human) (P42336 whole entry, looked up): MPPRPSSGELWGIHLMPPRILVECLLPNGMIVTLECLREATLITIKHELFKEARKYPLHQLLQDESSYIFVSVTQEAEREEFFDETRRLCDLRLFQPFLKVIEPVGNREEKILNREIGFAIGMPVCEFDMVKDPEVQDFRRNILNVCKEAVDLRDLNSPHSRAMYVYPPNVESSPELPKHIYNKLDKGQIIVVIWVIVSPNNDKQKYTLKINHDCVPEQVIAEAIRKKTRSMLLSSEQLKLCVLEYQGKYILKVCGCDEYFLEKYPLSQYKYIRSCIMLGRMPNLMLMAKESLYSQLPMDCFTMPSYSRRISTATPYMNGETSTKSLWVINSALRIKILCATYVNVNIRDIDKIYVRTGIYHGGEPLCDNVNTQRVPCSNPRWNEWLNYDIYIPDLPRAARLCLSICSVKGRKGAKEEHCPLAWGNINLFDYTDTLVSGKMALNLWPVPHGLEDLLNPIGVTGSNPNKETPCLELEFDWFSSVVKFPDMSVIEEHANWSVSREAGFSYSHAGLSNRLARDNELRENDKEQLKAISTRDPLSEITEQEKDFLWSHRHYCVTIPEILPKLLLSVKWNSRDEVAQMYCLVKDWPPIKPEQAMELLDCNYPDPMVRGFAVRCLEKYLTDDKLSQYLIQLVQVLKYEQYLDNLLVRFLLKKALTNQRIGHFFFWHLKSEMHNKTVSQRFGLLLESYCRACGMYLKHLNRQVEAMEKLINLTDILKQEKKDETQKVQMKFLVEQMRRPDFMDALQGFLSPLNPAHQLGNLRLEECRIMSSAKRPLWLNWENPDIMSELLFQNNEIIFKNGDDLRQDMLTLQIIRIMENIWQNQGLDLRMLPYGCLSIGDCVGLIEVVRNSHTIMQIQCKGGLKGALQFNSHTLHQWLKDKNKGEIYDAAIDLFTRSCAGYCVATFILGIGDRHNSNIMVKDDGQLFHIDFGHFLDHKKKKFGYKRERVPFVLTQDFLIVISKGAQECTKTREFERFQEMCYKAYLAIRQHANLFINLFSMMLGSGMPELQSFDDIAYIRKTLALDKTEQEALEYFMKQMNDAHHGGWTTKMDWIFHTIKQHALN
Sequence of PIK3CG (human) (P48736 whole entry, looked up): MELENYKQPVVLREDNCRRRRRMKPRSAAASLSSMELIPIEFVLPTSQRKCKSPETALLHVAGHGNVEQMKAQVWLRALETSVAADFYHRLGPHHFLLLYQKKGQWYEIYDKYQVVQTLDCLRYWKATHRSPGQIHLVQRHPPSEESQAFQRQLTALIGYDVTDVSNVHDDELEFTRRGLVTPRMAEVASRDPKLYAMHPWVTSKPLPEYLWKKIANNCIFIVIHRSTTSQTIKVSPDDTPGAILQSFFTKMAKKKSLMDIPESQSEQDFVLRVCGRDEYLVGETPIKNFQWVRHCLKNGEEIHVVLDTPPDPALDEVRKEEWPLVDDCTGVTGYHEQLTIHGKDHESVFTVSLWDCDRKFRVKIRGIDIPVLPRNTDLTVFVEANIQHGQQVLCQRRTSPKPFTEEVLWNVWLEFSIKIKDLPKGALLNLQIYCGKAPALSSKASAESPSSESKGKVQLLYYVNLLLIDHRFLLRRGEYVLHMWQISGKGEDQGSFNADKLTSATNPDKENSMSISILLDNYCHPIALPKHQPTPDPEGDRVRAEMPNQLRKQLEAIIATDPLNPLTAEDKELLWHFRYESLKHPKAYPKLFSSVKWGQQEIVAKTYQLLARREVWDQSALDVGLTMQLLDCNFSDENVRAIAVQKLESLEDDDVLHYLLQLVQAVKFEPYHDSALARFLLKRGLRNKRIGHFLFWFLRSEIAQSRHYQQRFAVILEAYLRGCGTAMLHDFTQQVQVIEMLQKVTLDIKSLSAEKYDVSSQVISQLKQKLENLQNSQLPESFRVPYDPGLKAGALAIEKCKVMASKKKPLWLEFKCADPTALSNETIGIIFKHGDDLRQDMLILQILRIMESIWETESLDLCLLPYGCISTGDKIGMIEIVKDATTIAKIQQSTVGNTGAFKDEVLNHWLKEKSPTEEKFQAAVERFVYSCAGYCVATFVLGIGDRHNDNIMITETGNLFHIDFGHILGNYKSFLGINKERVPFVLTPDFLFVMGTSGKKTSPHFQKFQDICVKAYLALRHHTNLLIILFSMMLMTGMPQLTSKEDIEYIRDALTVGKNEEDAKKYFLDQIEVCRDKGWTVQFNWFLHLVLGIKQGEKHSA

`Nc1ncc2cc(-c3cccc(O)c3)ccc2n1` was tested, and the IC50 (PIK3CA (human)) was 100 to 500 nM.

`CNc1nc(C)c2cc(-c3cnc4[nH]ccc4c3)ccc2n1` showed an IC50 (PIK3CA (human)) of 500 to 1000 nM and an IC50 (PIK3CG (human)) of 100 to 500 nM.

`CNc1nc(C)c2cc(-c3cccc(O)c3)ccc2n1` showed an IC50 (PIK3CA (human)) of 100 to 500 nM, an IC50 (PIK3CG (human)) of no more than 100 nM and an IC50 (PIK3CD (Human)) of 100 to 500 nM.

`Cc1nc(N)nc2ccc(-c3cnc4[nH]ccc4c3)cc12` was tested, and the IC50 (PIK3CA (human)) was 500 to 1000 nM.

Compound `CNc1nc(C)c2cc(-c3ccc(O)c(F)c3)ccc2n1` has an IC50 (PIK3CA (human)) of 500 to 1000 nM.

`CNc1nc(C)c2cc(-c3ccc(O)c(Cl)c3)ccc2n1` gave an IC50 (PIK3CA (human)) of 500 to 1000 nM.

For `CNc1nc(C)c2cc(-c3cc(O)cc(F)c3)ccc2n1`, the IC50 (PIK3CA (human)) was 100 to 500 nM, the IC50 (PIK3CB (Human)) was 500 to 1000 nM and the IC50 (PIK3CG (human)) was no more than 100 nM. The IC50 (PIK3CD (Human)) was no more than 100 nM.

In the case of `Cc1nc(Nc2cccnc2)nc2ccc(-c3cc(O)cc(F)c3)cc12`, the IC50 (PIK3CA (human)) is reported as no more than 100 nM, the IC50 (PIK3CG (human)) is reported as no more than 100 nM and the IC50 (PIK3CD (Human)) is reported as no more than 100 nM.

`CNc1nc(C)c2cc(-c3ccc(F)c(O)c3)ccc2n1` was tested, and the IC50 (PIK3CA (human)) was 500 to 1000 nM.

In the case of `Cc1nc(N)nc2ccc(-c3cccc(O)c3)cc12`, the IC50 (PIK3CA (human)) is reported as 100 to 500 nM, the IC50 (PIK3CB (Human)) is reported as 100 to 500 nM and the IC50 (PIK3CG (human)) is reported as no more than 100 nM. For the same compound, the IC50 (PIK3CD (Human)) was no more than 100 nM.

In the case of `Cc1nc(Nc2cccnc2)nc2ccc(-c3cccc(O)c3)cc12`, the IC50 (PIK3CA (human)) is reported as no more than 100 nM, the IC50 (PIK3CG (human)) is reported as no more than 100 nM and the IC50 (PIK3CD (Human)) is reported as no more than 100 nM.
